In ChEMBL document CHEMBL3244409, “(2,6-Methano-3-benzazocin-11 beta-yl)alkanones. 1. Alkylalkanones: a new series of N-methyl derivatives with novel opiate activity profiles” (1979):

What was measured:
Assay type in all cases: functional
[1] = tested on: Rattus norvegicus; test: Analgesic activity in sc dosed rat assessed as inhibition of phenazocine-induced effect
[2] = tested on: Rattus norvegicus; test: Analgesic activity in sc dosed rat by tail flick test
[3] = tested on: Mus musculus; test: Analgesic activity in sc dosed mouse by acetylcholine writhing test
[4] = tested on: Rattus norvegicus; test: Analgesic activity in sc dosed rat by intracarotid bradykinin test
[5] = tested on: Rattus norvegicus; test: Analgesic activity in sc dosed rat assessed as inhibition of morphine-induced effect
[6] = tested on: Rattus norvegicus; test: Analgesic activity in sc dosed rat assessed as inhibition of meperidine-induced effect
[7] = tested on: Rattus norvegicus; test: Analgesic activity in rat at 120 mg/kg, sc by tail flick test; conditions: route subcutaneous
[8] = tested on: Rattus norvegicus; test: Analgesic activity in rat at 240 mg/kg, sc by tail flick test; conditions: route subcutaneous
[9] = tested on: Mus musculus; test: Analgesic activity in mouse at 25 mg/kg, sc by acetylcholine writhing test; conditions: route subcutaneous
[10] = Rattus norvegicus, Tail, sc, read-out: ED50
[11] = Mus musculus, sc, read-out: ED50
[12] = Rattus norvegicus, sc, read-out: ED50

| Structure (SMILES) | AD50 [1] [mg/kg] | ED50 [2, 10] [mg/kg] | ED50 [3, 11] [mg/kg] | ED50 [4, 12] [mg/kg] | further results |
| --- | --- | --- | --- | --- | --- |
| CCC(=O)CC[C@]1(C)C2Cc3ccc(OC)cc3[C@@]1(C)CCN2C.CS(=O)(=O)O (mixture of isomers) | 1 | 5.9 | 1.9 |  |  |
| CC(=O)CC[C@]1(C)C2Cc3ccc(O)cc3[C@@]1(C)CCN2C.CS(=O)(=O)O (mixture of isomers) |  | 2.5 |  | 0.19 |  |
| CCCCCCC(=O)CC[C@]1(C)C2Cc3ccc(O)cc3[C@@]1(C)CCN2C.Cl (mixture of isomers) | 0.04 | 120 | 12 | 2.2 |  |
| CCCCCC(=O)CC[C@]1(C)C2Cc3ccc(O)cc3[C@@]1(C)CCN2C.Cl (mixture of isomers) | 0.008 | 120 | 0.24 | 0.043 | AD50 [5]: 0.098 mg/kg; AD50 [6]: 0.19 mg/kg |
| CCCC(=O)CC[C@]1(C)C2Cc3ccc(OC)cc3[C@@]1(C)CCN2C.CS(=O)(=O)O (mixture of isomers) | 80 | 2 | 0.89 |  |  |
| CC(C)CCC(=O)CC[C@]1(C)C2Cc3ccc(O)cc3[C@@]1(C)CCN2C.Cl (stereo in doubt; (-)-3i) | 0.088 |  |  |  | ED50 [3]: 0.016 mg/kg; Activity [7]: 46% |
| CC(C)C(=O)CC[C@]1(C)C2Cc3ccc(O)cc3[C@@]1(C)CCN2C.Cl (mixture of isomers) | 80 | 24 | 0.11 | 0.12 |  |
| C[C@H]1[C@H]2Cc3ccc(O)cc3[C@]1(C)CCN2CC1CC1 [CYCLAZOCINE] | 0.028 |  |  |  | AD50 [5]: 0.029 mg/kg; AD50 [6]: 0.024 mg/kg |
| CCC(=O)CC[C@]1(C)C2Cc3ccc(O)cc3[C@@]1(C)CCN2C.Cl (mixture of isomers) | 1 | 0.99 | 0.18 |  |  |
| CCCCCC(=O)CC[C@]1(C)C2Cc3ccc(O)cc3[C@@]1(C)CCN2C.CS(=O)(=O)O (single isomer, unassigned; (-)) | 0.005 |  |  |  | ED50 [4]: 0.022 mg/kg; ED50 [2]: 95 mg/kg; ED50 [3]: 0.19 mg/kg |
| CCCC(=O)CC[C@]1(C)C2Cc3ccc(O)cc3[C@@]1(C)CCN2C.Cl (mixture of isomers) | 80 | 0.099 | 0.023 | 0.019 |  |
| CC(C)CC(=O)CC[C@]1(C)C2Cc3ccc(O)cc3[C@@]1(C)CCN2C.Cl (mixture of isomers) | 0.01 | 0.067 | 0.019 | 0.019 |  |
| CN1CC[C@]23c4c5ccc(O)c4O[C@H]2[C@@H](O)C=C[C@H]3[C@H]1C5 [MORPHINE] |  | 3.9 |  | 2.3 |  |
| COc1ccc2c(c1)[C@@]1(C)CCN(C)C(C2)[C@@]1(C)CCC(=O)CC(C)C.CS(=O)(=O)O (mixture of isomers) | 80 | 4.3 | 1 |  |  |
| C=CCN1CC[C@]23c4c5ccc(O)c4O[C@H]2C(=O)CC[C@@]3(O)[C@H]1C5 [NALOXONE] | 0.008 |  | 60 |  | AD50 [5]: 0.004 mg/kg; AD50 [6]: 0.004 mg/kg |
| CC(C)CCC(=O)CC[C@]1(C)C2Cc3ccc(O)cc3[C@@]1(C)CCN2C.Cl (stereo in doubt; (+)-3i) | 20 | 120 |  |  | ED50 [3]: 10 mg/kg |
| CC(C)CCC(=O)CC[C@]1(C)C2Cc3ccc(O)cc3[C@@]1(C)CCN2C.Cl (mixture of isomers) | 0.3 |  |  | 0.032 | AD50 [5]: 0.58 mg/kg; AD50 [6]: 0.73 mg/kg; ED50 [3]: 0.074 mg/kg; Activity [8]: 47% |
| CC(=O)CC[C@]1(C)C2Cc3ccc(O)cc3[C@@]1(C)CCN2C (mixture of isomers) | 40 |  | 0.25 |  |  |
| CCCCC(=O)CC[C@]1(C)C2Cc3ccc(OC)cc3[C@@]1(C)CCN2C.Cl (mixture of isomers) | 1 | 1.35 | 0.63 |  |  |
| COc1ccc2c(c1)[C@@]1(C)CCN(C)C(C2)[C@@]1(C)CCC(=O)CCC(C)C.Cl (mixture of isomers) | 80 | 16 | 2 | 2.4 |  |
| CO[C@@]12CC[C@@]3(C[C@@H]1[C@](C)(O)C(C)(C)C)[C@H]1Cc4ccc(O)c5c4[C@@]3(CCN1CC1CC1)[C@H]2O5 [BUPRENORPHINE] | 0.11 |  | 0.059 | 0.004 | Activity [7]: 14% |
| CCCCCC(=O)CC[C@]1(C)C2Cc3ccc(O)cc3[C@@]1(C)CCN2C.CS(=O)(=O)O (stereo in doubt; (+)-3e) | 80 | 95 |  |  | ED50 [4]: 50 mg/kg; ED50 [3]: 11 mg/kg |
| COc1ccc2c(c1)[C@@]1(C)CCN(C)C(C2)[C@@]1(C)CCC(=O)CCCC(C)C.Cl (mixture of isomers) | 80 |  | 7.5 |  | Activity [7]: 70% |
| CC(C)CCCC(=O)CC[C@]1(C)C2Cc3ccc(O)cc3[C@@]1(C)CCN2C (mixture of isomers) | 0.029 | 120 | 5.3 |  |  |
| CCCCCC(=O)CC[C@]1(C)C2Cc3ccc(OC)cc3[C@@]1(C)CCN2C.Cl (mixture of isomers) | 10 | 30 | 1.5 |  |  |
| CCCCCCC(=O)CC[C@]1(C)C2Cc3ccc(OC)cc3[C@@]1(C)CCN2C.Cc1ccc(S(=O)(=O)O)cc1 (mixture of isomers) | 80 | 120 |  |  | Activity [9]: 20% |
| COc1ccc2c(c1)[C@@]1(C)CCN(C)C(C2)[C@@]1(C)CCC(C)=O.Cl (mixture of isomers) |  |  | 3.5 |  | Activity [7]: 66% |
| CCCCC(=O)CC[C@]1(C)C2Cc3ccc(O)cc3[C@@]1(C)CCN2C.Cl (mixture of isomers) | 0.1 | 0.039 | 0.017 | 0.012 |  |
| COc1ccc2c(c1)[C@@]1(C)CCN(C)C(C2)[C@@]1(C)CCC(=O)C(C)C.CS(=O)(=O)O (mixture of isomers) | 80 |  | 5 |  | Activity [7]: 42% |
